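Cells were grown in 96-well plates and exposed to each compound for 48 hours at five concentrations; endpoints were interpolated linearly between bracketing concentrations, or set to the highest concentration if not reached. GI50 is the concentration that inhibits growth by half.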 Calls of active or inactive are those of the source. Cut-off read from the data, not from the text of the source: active = GI50 up to about 1.1 µM and inactive = higher.
Experiments:
Assay in all cases: inhibition of tumour cell growth, NCI panel, 48 h
SNB-19 = system: SNB-19
HOP-92 = system: HOP-92
786-0 = system: 786-0
CAKI-1 = system: CAKI-1
UACC-257 = system: UACC-257
SK-MEL-2 = system: SK-MEL-2
TK-10 = system: TK-10
UACC-62 = system: UACC-62
SK-MEL-5 = system: SK-MEL-5
K562 = system: K562
SK-OV-3 = system: SK-OV-3
HOP-62 = system: HOP-62
U-251 = system: U-251
SN12C = system: SN12C
HCT-116 = system: HCT-116
SR = system: SR

Structure (SMILES)	GI50 (SNB-19)	GI50 (HOP-92)	GI50 (786-0)	GI50 (CAKI-1)	GI50 (UACC-257)	GI50 (SK-MEL-2)	GI50 (TK-10)	GI50 (UACC-62)	GI50 (SK-MEL-5)	GI50 (K562)	GI50 (SK-OV-3)	GI50 (HOP-62)	GI50 (U-251)	GI50 (SN12C)	GI50 (HCT-116)	GI50 (SR)
CCOC(=O)c1c2ccc(/C=C/c3ccccn3)ccc-2c(C(=O)OCC)c1N	> 100 µM (inactive)	> 100 µM (inactive)	> 100 µM (inactive)	> 100 µM (inactive)	> 100 µM (inactive)	> 100 µM (inactive)	> 100 µM (inactive)	> 100 µM (inactive)	> 100 µM (inactive)	> 100 µM (inactive)	> 100 µM (inactive)	–	–	–	–	–
CC[P+](C)(C)c1ccccc1	> 100 µM (inactive)	–	> 100 µM (inactive)	> 100 µM (inactive)	> 100 µM (inactive)	> 100 µM (inactive)	> 100 µM (inactive)	> 100 µM (inactive)	> 100 µM (inactive)	> 100 µM (inactive)	> 100 µM (inactive)	> 100 µM (inactive)	> 100 µM (inactive)	> 100 µM (inactive)	–	–
CCOC(=O)c1cc(-c2ccc(-c3cc(C(=O)OCC)c(C#N)c(N)c3C#N)cc2)c(C#N)c(N)c1C#N	> 100 µM (inactive)	–	> 100 µM (inactive)	> 100 µM (inactive)	> 100 µM (inactive)	> 100 µM (inactive)	> 100 µM (inactive)	> 100 µM (inactive)	–	> 100 µM (inactive)	> 100 µM (inactive)	> 100 µM (inactive)	> 100 µM (inactive)	> 100 µM (inactive)	> 100 µM (inactive)	> 100 µM (inactive)
OCc1c(-c2cccc3ccccc23)sc(-c2cccc3ccccc23)c1CO	12.5 µM (inactive)	15.1 µM (inactive)	14 µM (inactive)	–	12.8 µM (inactive)	14.6 µM (inactive)	13.1 µM (inactive)	11.3 µM (inactive)	11.3 µM (inactive)	6.5 µM (inactive)	15.2 µM (inactive)	13 µM (inactive)	12.2 µM (inactive)	13.5 µM (inactive)	–	13.5 µM (inactive)
NC(=S)N/N=C/C(O[C@@H](/C=N/NC(N)=S)CO)n1cnc2c(N)ncnc21 (stereo not given in full)	> 100 µM (inactive)	97.5 µM (inactive)	> 58.2 µM (inactive)	> 100 µM (inactive)	> 100 µM (inactive)	–	> 100 µM (inactive)	> 81.7 µM (inactive)	44.6 µM (inactive)	> 54.7 µM (inactive)	> 100 µM (inactive)	> 100 µM (inactive)	> 51.2 µM (inactive)	> 100 µM (inactive)	24.4 µM (inactive)	> 100 µM (inactive)
CC(C)(Oc1ccc2c(=O)cc(-c3ccc(Cl)cc3)oc2c1)C(=O)Nc1c(Cl)cccc1Cl	> 100 µM (inactive)	> 100 µM (inactive)	> 100 µM (inactive)	> 100 µM (inactive)	> 100 µM (inactive)	> 100 µM (inactive)	> 100 µM (inactive)	> 100 µM (inactive)	96.6 µM (inactive)	5.98 µM (inactive)	> 100 µM (inactive)	> 100 µM (inactive)	> 100 µM (inactive)	–	> 100 µM (inactive)	79.3 µM (inactive)
CN(C)C(=S)N=C(Nc1ccccc1)Nc1ccccc1	> 100 µM (inactive)	> 100 µM (inactive)	> 100 µM (inactive)	> 100 µM (inactive)	> 100 µM (inactive)	> 100 µM (inactive)	> 100 µM (inactive)	> 100 µM (inactive)	> 100 µM (inactive)	> 100 µM (inactive)	> 100 µM (inactive)	> 100 µM (inactive)	> 100 µM (inactive)	> 100 µM (inactive)	> 100 µM (inactive)	> 100 µM (inactive)
C/C(CC(=O)Nc1ccccc1[N+](=O)[O-])=N\NC(N)=O	–	> 100 µM (inactive)	> 100 µM (inactive)	–	> 100 µM (inactive)	> 100 µM (inactive)	> 100 µM (inactive)	> 100 µM (inactive)	> 100 µM (inactive)	> 100 µM (inactive)	> 100 µM (inactive)	> 100 µM (inactive)	> 100 µM (inactive)	–	> 100 µM (inactive)	–
CCOc1ccccc1NC(=O)C(=O)CC(=O)C1=C(C)Nc2ccccc2S1	> 100 µM (inactive)	> 100 µM (inactive)	> 100 µM (inactive)	> 100 µM (inactive)	> 100 µM (inactive)	> 100 µM (inactive)	> 100 µM (inactive)	> 100 µM (inactive)	> 100 µM (inactive)	> 30.5 µM (inactive)	> 100 µM (inactive)	> 100 µM (inactive)	> 100 µM (inactive)	> 100 µM (inactive)	> 100 µM (inactive)	–
CC(C)OC(=O)C1=C(O)c2ccccc2S(=O)(=O)N1	> 100 µM (inactive)	–	> 100 µM (inactive)	> 100 µM (inactive)	> 100 µM (inactive)	> 100 µM (inactive)	> 100 µM (inactive)	> 100 µM (inactive)	> 100 µM (inactive)	> 100 µM (inactive)	> 100 µM (inactive)	> 100 µM (inactive)	> 100 µM (inactive)	> 100 µM (inactive)	> 100 µM (inactive)	–
COc1cc([C@@H]2c3cc4c(cc3[C@@H](NCc3ccccc3)C3COC(=O)[C@@H]32)OCO4)cc(OC)c1O (stereo not given in full)	4.86 µM (inactive)	5.83 µM (inactive)	3.47 µM (inactive)	2.24 µM (inactive)	27.1 µM (inactive)	23.4 µM (inactive)	26 µM (inactive)	3.83 µM (inactive)	11.8 µM (inactive)	16.6 µM (inactive)	6.52 µM (inactive)	4 µM (inactive)	3.71 µM (inactive)	3.28 µM (inactive)	14 µM (inactive)	0.345 µM (active)
CC1/C(=N\O)CC(c2ccccc2)N(C)C1c1ccccc1 (stereo not given)	> 100 µM (inactive)	> 100 µM (inactive)	> 100 µM (inactive)	> 100 µM (inactive)	> 100 µM (inactive)	> 100 µM (inactive)	> 100 µM (inactive)	> 100 µM (inactive)	> 100 µM (inactive)	> 100 µM (inactive)	> 100 µM (inactive)	> 100 µM (inactive)	> 100 µM (inactive)	> 100 µM (inactive)	> 100 µM (inactive)	–
C#CCN(Cc1ccc2nc(-c3ccccc3)c(Cl)nc2c1)c1ccc(Cl)c(Cl)c1	> 100 µM (inactive)	> 100 µM (inactive)	> 100 µM (inactive)	> 100 µM (inactive)	> 100 µM (inactive)	> 100 µM (inactive)	> 100 µM (inactive)	> 100 µM (inactive)	> 100 µM (inactive)	> 100 µM (inactive)	> 100 µM (inactive)	> 100 µM (inactive)	> 100 µM (inactive)	> 100 µM (inactive)	> 100 µM (inactive)	> 100 µM (inactive)
CC1=CC(=O)NCCN1C	> 100 µM (inactive)	> 100 µM (inactive)	> 100 µM (inactive)	> 100 µM (inactive)	> 100 µM (inactive)	> 100 µM (inactive)	> 100 µM (inactive)	> 100 µM (inactive)	> 100 µM (inactive)	73.5 µM (inactive)	> 100 µM (inactive)	> 100 µM (inactive)	> 100 µM (inactive)	> 100 µM (inactive)	> 100 µM (inactive)	> 100 µM (inactive)
O=C(NC1C(=O)NNC1c1cccc([N+](=O)[O-])c1)c1ccccc1 (stereo not given)	> 100 µM (inactive)	> 100 µM (inactive)	> 100 µM (inactive)	–	> 100 µM (inactive)	> 100 µM (inactive)	> 100 µM (inactive)	> 100 µM (inactive)	> 100 µM (inactive)	–	–	> 100 µM (inactive)	> 100 µM (inactive)	> 100 µM (inactive)	> 100 µM (inactive)	–
NC(=O)c1cn(C2OC(CO)C(O)C2O)c(=O)[nH]c1=O (stereo not given)	–	> 100 µM (inactive)	> 100 µM (inactive)	> 100 µM (inactive)	> 100 µM (inactive)	> 100 µM (inactive)	> 100 µM (inactive)	> 100 µM (inactive)	> 100 µM (inactive)	> 100 µM (inactive)	> 100 µM (inactive)	> 100 µM (inactive)	> 100 µM (inactive)	–	> 100 µM (inactive)	> 100 µM (inactive)
CC(N)CC(=O)O (stereo not given)	–	> 5000 µM (inactive)	> 5000 µM (inactive)	–	> 5000 µM (inactive)	> 5000 µM (inactive)	> 5000 µM (inactive)	> 5000 µM (inactive)	> 5000 µM (inactive)	> 5000 µM (inactive)	> 5000 µM (inactive)	–	> 5000 µM (inactive)	> 5000 µM (inactive)	> 5000 µM (inactive)	> 5000 µM (inactive)
c1ccc(NC[Si]23OCCN(CCO2)CCO3)cc1	> 100 µM (inactive)	> 100 µM (inactive)	> 100 µM (inactive)	> 100 µM (inactive)	> 100 µM (inactive)	> 100 µM (inactive)	> 100 µM (inactive)	> 100 µM (inactive)	> 100 µM (inactive)	> 100 µM (inactive)	> 100 µM (inactive)	–	> 100 µM (inactive)	> 100 µM (inactive)	> 100 µM (inactive)	> 100 µM (inactive)
CO[C@H](C(=O)O[C@H]1C(=O)N2CCC3CCC1C32C)c1ccccc1 (stereo not given in full)	> 100 µM (inactive)	–	> 100 µM (inactive)	> 100 µM (inactive)	> 100 µM (inactive)	> 100 µM (inactive)	–	> 100 µM (inactive)	> 100 µM (inactive)	> 100 µM (inactive)	> 100 µM (inactive)	> 100 µM (inactive)	> 100 µM (inactive)	> 100 µM (inactive)	> 100 µM (inactive)	> 100 µM (inactive)

— ChEMBL document CHEMBL1201862, “PubChem BioAssay data set” (2004)
